Source: paper PMC9781199, “Rational-Based Discovery of Novel β-Carboline Derivatives as Potential Antimalarials: From In Silico Identification of Novel Targets to Inhibition of Experimental Cerebral Malaria” (Pathogens, 2022)
“And” between values parts separate entries of the source, which are not always exact repeats. Equal values may be shown once. Read-outs that look alike come from different tables or passages of the source.

Tests used:
[1] = test system: Plasmodium falciparum W2 strain (CQ-resistant); assay: In vitro antiplasmodial activity, SYBR test; format: cell-based; settings: for IC50: W2 strain (chloroquine-resistant), SYBR test, triplicate, read-out: P. falciparum IC50 ± SD; for SI (selectivity index): ratio between cytotoxic (WI-26-VA4) and antiplasmodial (W2) activities
Experimental: Continuous culture was maintained as previously described. In vitro antiplasmodial activity of the seven compounds against the P. falciparum culture was evaluated using the SYBR test as previously described. Compounds were diluted to concentrations ranging from 10 to 0.0001 μM. […] The plate was read in a fluorometer (Fluoroskan Ascent, Thermo Laboratories) with excitation at 485 nm and an emission of […]. All experiments were performed in triplicate. The results were expressed as the mean of minimum lethal dose for 50% of the culture (IC50).
Selectivity index (SI) is the ratio between the cytotoxic and antiplasmodial activities of each compound tested. The values greater than 10 were considered indicative of lack of cytoxicity, whereas the substances with values below 10 were considered toxic.

[2] = test system: human pulmonary fibroblast cells WI-26VA4; assay: In vitro cytotoxicity on mammalian cells, MTT assay; format: cell-based; settings: human fibroblasts, MTT, 48 h, highest concentration 100 μM, read-out: WI-26-VA4 IC50 ± SD
Experimental: In vitro cytotoxicity of the compounds was assessed against human pulmonary fibroblast cells WI-26VA4 (ATCC CCL-95.1, USA), by 3-(4,5-dimethyl-2-thiazolyl)-2, 5-diphenyl-2H-tetrazolium bromide (MTT assay). Cells were cultured in a RPMI-1640 medium supplemented with 10% heat-inactivated fetal bovine serum in a 96-well plate. Compounds were diluted in different concentrations ranging from 100 to 1 μM and incubated with the cells for 48 h in a 5% CO2 atmosphere at 37 °C. The optical density was determined at 540 nm […] (Spectra Max340PC384, Molecular Devices, Sunnyvale, CA, USA). The minimum lethal dose for 50% of the cells (IC50) was determined as previously described.

Plasmodium berghei ANKA [3] = assay: Curative test in the mouse model of experimental cerebral malaria; format: in vivo, C57BL/6 mice infected with P. berghei ANKA; settings: for % Reduction of parasitemia, 5th dpi / Parasitemia ± SD, 5th dpi / % Reduction of parasitemia, 7th dpi / Parasitemia ± SD, 7th dpi: 10 mg/Kg oral, day 3 to 7 p.i.
Plasmodium berghei ANKA [4] = assay: Suppressive modified test in the mouse model of experimental cerebral malaria; format: in vivo, C57BL/6 mice infected with P. berghei ANKA; settings: for % Reduction of parasitemia, 5th dpi / Parasitemia ± SD, 5th dpi / % Reduction of parasitemia, 7th dpi / Parasitemia ± SD, 7th dpi: suppressive test, 10 mg/Kg oral for five days from 4 h after infection
Experimental: The animals (n = 5/cage) were housed in ALESCO® climate-controlled cabinets with controlled air flow, a temperature of 22 ± 2 °C and light control, respecting the animals’ circadian rhythm (light/dark cycle of 12 h), with standard rodent food and water ad libitum.
To carry out the proposed experiments, the murine model of ECM was used to assess the antimalarial activity of the compounds. Plasmodium berghei ANKA was kindly provided by Claudio Romero Marinho (Federal University of São Paulo-Brazil), and was used to conduct the infections which were performed by intraperitoneal (i.p.) injection of 10^5 parasitized red blood cells (pRBCs) obtained from infected donor mice, as previously described. Reduced responsiveness to external stimuli, ataxia, paralysis, coma, and/or convulsions were considered clinical signals of ECM [44].
In the suppressive modified test, mice were treated daily by oral gavage for five consecutive days, starting four hours after infection.
Parasitemia was monitored using giemsa-stained blood smears and the inhibition of parasite multiplication (IPM) was calculated by the formula: [(A–B)/A] × 100, where A = parasitemia of the PbA, and B = parasitemia of the group treated with the compounds. The clinical symptoms were evaluated using the rapid murine coma and behavior scale (RMCBS) from day 5 p.i. being maintained until the end of experimentation. The RMCBS consists of 10 parameters (gait, balance, motor performance, body position, limb strength, touch escape, pinna reflex, toe pinch, aggression, and grooming). Each parameter is scored 0 to 2, with 0 being the lowest function and 2 being the highest. Animals with clinical score ≤ 5 were euthanized. The survival rate (SR) was calculated based on the number of alive animals after 14 days of clinical evaluation. […]

[5] = suppressive treatment regimen, 10 mg/kg oral

Compound | IC50 [1] | IC50 [2] | IC50 ([1]; Plasmodium falciparum) | SI (selectivity index) [1] | IC50 ([2]; WI26VA4) | % Reduction of parasitemia, 5th dpi (Plasmodium berghei ANKA [3]) | Parasitemia ± SD, 5th dpi (Plasmodium berghei ANKA [3]) | % Reduction of parasitemia, 7th dpi (Plasmodium berghei ANKA [3]) | Parasitemia ± SD, 7th dpi (Plasmodium berghei ANKA [3]) | Prevention of the development of CM (share of animals) (Plasmodium berghei ANKA [3]; 10 mg/kg oral) | % Reduction of parasitemia, 5th dpi (Plasmodium berghei ANKA [4]) | Parasitemia ± SD, 5th dpi (Plasmodium berghei ANKA [4]) | % Reduction of parasitemia, 7th dpi (Plasmodium berghei ANKA [4]) | Parasitemia ± SD, 7th dpi (Plasmodium berghei ANKA [4]) | Inhibition of parasite growth (in words) (Plasmodium berghei ANKA [4]; [5]) | Animals alive until the 14th dpi (without CM) (Plasmodium berghei ANKA [3]; 10 mg/kg oral) | % Reduction of parasitemia, 5th dpi (Plasmodium berghei ANKA [4]; 10 mg/kg) | Protection against CM (share of animals) (Plasmodium berghei ANKA [4]; [5])
artemisinin [reference compound] | 95 ± 10 nM | > 100000 nM |  |  |  |  |  |  |  |  |  |  |  |  |  |  |  | 
COC(=O)[C@@H]1Cc2c([nH]c3ccccc23)[C@H](c2ccccc2Cl)N1 [Compound 5, Methyl (1S,3S)-1-(2-Chloro)-2,3,4,9-tetrahydro-1H-pyrido[3,4-b]indole-3-carboxylate] |  |  | 1410 ± 18 nM | >71 | > 100000 nM | 0.00% | 5.00 ± 1.59 | 0% | 7.20 ± 4.57 | No protective effect |  |  |  |  |  |  |  | 
COC(=O)[C@@H]1Cc2c([nH]c3ccccc23)[C@H](c2ccccc2OC)N1 [Compound 3, Methyl (1S,3S)-1-(2-Methoxy)-2,3,4,9-tetrahydro-1H-pyrido[3,4-b]indole-3-carboxylate] |  |  | 710 ± 12 nM | >141 | > 100000 nM | 41.19% | 1.87 ± 1.02 | 0% | 7.50 ± 2.49 |  | 0.00% | 3.56 ± 2.57 | 0% | 7.96 ± 3.26 | not effective |  |  | 
COC(=O)[C@@H]1Cc2c([nH]c3ccccc23)[C@@H](c2ccccc2OC)N1 [Compound 4, Methyl (1R,3S)-1-(2-Methoxy)-2,3,4,9-tetrahydro-1H-pyrido[3,4-b]indole-3-carboxylate] |  |  | 1040 ± 21 nM | >96 | > 100000 nM | 75.16% | 0.79 ± 0.63 | 20.00% | 5.48± 3.64 |  |  | 1.88 ± 2.46 | 9.78% | 6.18 ± 4.75 |  | 90% | 40% and 40.88% | 60%
